Measurements taken from patent US20160108008A1, “Substituted N-(Tetrazol-5-yl)- and N-(Triazol-5-yl)arylcarboxamide Compounds and Their Use as Herbicides” (BASF SE, priority 2013, published 2016).
Marks after values point to notes of the source that are not given here.

How the values were obtained:
Type in all cases: in vivo
[1] = test system: Echinochloa crus-galli; test: greenhouse post-emergence treatment, ECHCG; settings: scale 0-100
Description: (§1) The culture containers used were plastic flowerpots containing loamy sand with approximately 3.0% of humus as the substrate. The seeds of the test plants were sown separately for each species.
(§2) For the post-emergence treatment, the test plants were first grown to a height of 3 to 15 cm, depending on the plant habit, and only then treated with the active ingredients which had been suspended or emulsified in water. For this purpose, the test plants were either sown directly and grown in the same containers, or they were first grown separately as seedlings and transplanted into the test containers a few days prior to treatment.
(§3) Depending on the species, the plants were kept at 10-25° C. or 20-35° C. The test period extended over 2 to 4 weeks. During this time, the plants were tended, and their response to the individual treatments was evaluated.
(§4) Evaluation was carried out using a scale from 0 to 100. 100 means no emergence of the plants, or complete destruction of at least the aerial moieties, and 0 means no damage, or normal course of growth. A good herbicidal activity is given at values of at least 70 and a very good herbicidal activity is given at values of at least 85.
(§5) The plants used in the greenhouse experiments belonged to the following species:
(§6) Following representative compounds of formula I according to Table 9 were used in post-emergence treatments in greenhouse experiments (values labeled with * result from pre-emergence experiments): […]

[2] = test system: Chenopodium album; test: greenhouse post-emergence treatment, CHEAL; settings: scale 0-100
Description: as §1, §2, §3, §4, §5, §6

[3] = test system: Amaranthus retroflexus; test: greenhouse post-emergence treatment, AMARE; settings: scale 0-100
Description: as §1, §2, §3, §4, §5, §6

[4] = test system: Amaranthus retroflexus; test: greenhouse pre-emergence treatment, AMARE; settings: pre-emergence (value labeled *), scale 0-100
Description: as §1
For the pre-emergence treatment, the active ingredients, which had been suspended or emulsified in water, were applied directly after sowing by means of finely distributing nozzles. The containers were irrigated gently to promote germination and growth and subsequently covered with transparent plastic hoods until the plants had rooted. This cover caused uniform germination of the test plants, unless this has been impaired by the active ingredients.
as §3, §4, §5, §6

SMILES	[%] damage to weed VII (ECHCG) ([1]; 250 g/ha)	[%] damage to weed VI (CHEAL) ([2]; 250 g/ha)	[%] damage to weed III (AMARE) ([3]; 250 g/ha)	[%] damage to weed III (AMARE) ([4]; 250 g/ha)	other results
CCCSc1c(Cl)cc(F)c(C(=O)Nc2ncnn2C)c1Cl [compound 22]	100%	100%	100: %	80* %	
CCC[S+]([O-])c1c(Cl)cc(F)c(C(=O)Nc2nnnn2C)c1Cl (centres unmarked) [compound 23]	98%	100%	100; %	98* %	
CCCS(=O)(=O)c1c(Cl)cc(F)c(C(=O)Nc2nnnn2C)c1Cl [compound 24]	100%	100%	100; %	100* %	
CCCS(=O)(=O)c1c(Cl)cc(F)c(C(=O)Nc2ncnn2C)c1Cl [compound 26]					[%] damage to weed VII (ECHCG) ([1]; 500 g/ha): 98%; [%] damage to weed VI (CHEAL) ([2]; 500 g/ha): 100%; [%] damage to weed III (AMARE) ([3]; 500 g/ha): 100; %; [%] damage to weed III (AMARE) ([4]; 500 g/ha): 98* %
CCC[S+]([O-])c1c(Cl)cc(F)c(C(=O)Nc2ncnn2C)c1Cl (centres unmarked) [compound 27]					[%] damage to weed VII (ECHCG) ([1]; 244 g/ha): 98%; [%] damage to weed VI (CHEAL) ([2]; 244 g/ha): 100%; [%] damage to weed III (AMARE) ([3]; 244 g/ha): 100; %; [%] damage to weed III (AMARE) ([4]; 244 g/ha): 85* %
CCn1nnnc1NC(=O)c1c(F)cc(Cl)c([S+](C)[O-])c1Cl (centres unmarked) [compound 32]	100%	100%	100; %	100* %	
CCSc1c(Cl)cc(Cl)c(C(=O)Nc2nnnn2C)c1Cl [compound 41]	100%	100%	100; %	100* %	
CC[S+]([O-])c1c(Cl)cc(Cl)c(C(=O)Nc2nnnn2C)c1Cl (centres unmarked) [compound 60]					[%] damage to weed VII (ECHCG) ([1]; 500 g/ha): 98%; [%] damage to weed VI (CHEAL) ([2]; 500 g/ha): 100%; [%] damage to weed III (AMARE) ([3]; 500 g/ha): 100; %; [%] damage to weed III (AMARE) ([4]; 500 g/ha): 100* %
CCSc1c(Cl)cc(F)c(C(=O)Nc2nnnn2CC)c1Cl [compound 64]					[%] damage to weed VII (ECHCG) ([1]; 500 g/ha): 100%; [%] damage to weed VI (CHEAL) ([2]; 500 g/ha): 100%; [%] damage to weed III (AMARE) ([3]; 500 g/ha): 100; %; [%] damage to weed III (AMARE) ([4]; 500 g/ha): 100* %
COCCOc1c(Cl)cc(F)c(C(=O)Nc2nnnn2CCOC)c1Cl [compound 68]	100%	100%	100; %	100* %	
CCS(=O)(=O)c1c(Cl)cc(Cl)c(C(=O)Nc2nnnn2C)c1Cl [compound 73]	100%	100%	100; %	98* %	
COCCn1nnnc1NC(=O)c1c(Cl)cc(Cl)c(SC)c1Cl [compound 75]	100%	100%	100; %	100* %	
CC[S+]([O-])c1c(Cl)cc(F)c(C(=O)Nc2nnnn2CCOC)c1Cl (centres unmarked) [compound 77]					[%] damage to weed VII (ECHCG) ([1]; 125 g/ha): 100%; [%] damage to weed VI (CHEAL) ([2]; 125 g/ha): 100%; [%] damage to weed III (AMARE) ([3]; 125 g/ha): 100; %; [%] damage to weed III (AMARE) ([4]; 125 g/ha): 100* %
COCCOc1ccc(Cl)c(C(=O)Nc2ncnn2C)c1Cl [compound 85]	85%	100%	100%		
CCSc1ccc(Cl)c(C(=O)Nc2nnnn2C)c1Cl [compound 88]	100%	100%			
Cn1ncnc1NC(=O)c1c(F)cc(Cl)c(OCCC(F)(F)F)c1Cl [compound 90, 2,4-Dichloro-6-fluoro-N-(2-methyl-1,2,4-triazol-3-yl)-3-(3,3,3-trifluoropropoxy)benzamide]	90%	100%			
Cn1ncnc1NC(=O)c1c(F)cc(Cl)c([S+](C)[O-])c1Cl (centres unmarked) [cpd. 5]	98%	100%	100%		
